From US20230391826A1, “COMPOSITIONS AND METHODS FOR TREATING DISEASES” (Sanford Burnham Prebys Medical Discovery Institute, priority 2020, published 2023)
Values after ≈ are worked out from the molar mass of the structure shown. Like-named read-outs stand apart in the source and are kept apart here. Where a SMILES comes first, the peptide text is derived from it. Bridges are numbered along the chain shown (N, C = ends). Roman numbers before positions name the chains, in order. [ ]: non-standard residue; d: D form. βAla = NCCC(=O)O

What was measured:
[1] = Peptide solubility in PBS/H2O/DMSO; format: physicochemical
Procedure: Peptide identity and purity are documented by mass spectrometry and high-performance liquid chromatography (HPLC). The peptide solubility values are determined. Concentrated peptide stocks are prepared in DMSO or H2O and stored frozen at −80° C.

[2] = molecular target: T1, EphA2 extracellular domain fused to Fc (EphA2-Fc) (Homo sapiens, UniProt P29317); test: ELISA: inhibition of ephrinA5-AP binding to immobilized EphA2-Fc
T1 construct: immobilized EphA2 extracellular domain fused to the Fc portion of an antibody (EphA2-Fc)
T1 sequence (P29317 24-537 limits assumed): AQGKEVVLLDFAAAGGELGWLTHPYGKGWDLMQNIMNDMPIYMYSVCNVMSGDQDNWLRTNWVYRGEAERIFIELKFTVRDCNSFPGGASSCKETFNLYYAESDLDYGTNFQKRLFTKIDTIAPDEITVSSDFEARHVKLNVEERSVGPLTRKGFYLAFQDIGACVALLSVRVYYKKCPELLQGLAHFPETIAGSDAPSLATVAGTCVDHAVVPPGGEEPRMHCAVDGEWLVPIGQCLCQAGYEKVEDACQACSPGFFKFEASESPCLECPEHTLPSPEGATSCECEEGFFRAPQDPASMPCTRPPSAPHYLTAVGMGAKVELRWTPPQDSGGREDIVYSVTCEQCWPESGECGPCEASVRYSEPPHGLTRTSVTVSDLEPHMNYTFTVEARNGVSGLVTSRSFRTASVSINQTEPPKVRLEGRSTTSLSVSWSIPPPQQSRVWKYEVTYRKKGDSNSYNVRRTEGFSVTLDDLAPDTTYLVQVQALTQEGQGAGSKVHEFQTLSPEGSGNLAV
Source text: FIG. 1A-1C illustrates an example of Potency and selectivity of EphA2-targeting dimeric peptides. (FIG. 1A) ELISAs comparing the ability of the peptides to inhibit binding of ephrin-A5 fused to alkaline phosphatase (ephrinA5-AP) to the immobilized EphA2 extracellular domain fused to the Fc portion of an antibody (EphA2-Fc). The graphs show averages ±SD from triplicate measurements from a representative experiment. IC50 values calculated from the fitted curves in each experiment are shown. Averages of IC50 values obtained from multiple experiments are shown in panel FIG. 1B and Table 3. The 10 nM peptide concentration is outlined in red. (FIG. 1B) Plot of the average IC50 values (listed in Table 3) for different ligands. […] (FIG. 1C) EphrinA5-AP binding to EphA receptors and ephrinB2-AP binding to EphB receptors in the presence of dimeric peptides representing each of the three configurations. Values are normalized to ephrin binding without peptide. The graphs show averages and SDs from triplicate measurements (with each measurement shown as a dot).

EphA2 LBD = molecular target: T2, EphA2 LBD (Homo sapiens, UniProt P29317); test: Isothermal titration calorimetry (ITC) with soluble EphA2 LBD; format: binding
T2 construct: made in house; host or cells: E. coli Origami 2(DE3)
T2 sequence (P29317 28-200): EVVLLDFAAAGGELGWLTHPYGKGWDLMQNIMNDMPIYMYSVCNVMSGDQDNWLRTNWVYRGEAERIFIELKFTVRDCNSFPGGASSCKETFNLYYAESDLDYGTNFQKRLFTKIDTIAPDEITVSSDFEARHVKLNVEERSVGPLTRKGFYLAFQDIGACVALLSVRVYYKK
Procedure: (FIG. 10A-10E) The EphA2 LBD was titrated at 200-250 μM into 10-12.5 μM of the indicated peptide.
For ITC, all peptides are dissolved in DMSO and both the EphA2 LBD and the peptides are diluted to obtain a final buffer containing 9.5 mM HEPES, pH 7.9, 95 mM NaCl, and 5% DMSO. The experiments are carried out at 296 K (23° C.) using an ITC200 calorimeter (Microcal). Two-microliter aliquots of a peptide solution are injected into the cell containing 205 μL EphA2 LBD. 200-400 μM peptides are titrated into 20-40 μM EphA2 LBD. Experimental data are analyzed using the Origin software package (Microcal). The integrated values for the reaction heats are normalized to the amount of injected peptide after blank subtraction.

EphA2 = EphA2 (Homo sapiens, UniProt P29317); test: EphA2 autophosphorylation on tyrosine 588 in PC3 cells (immunoblot dose-response); format: cell-based; design: EphA2 is the prevalent endogenously expressed EphA receptor in these cells; endogenous in cells; host or cells: PC3 prostate cancer cells; conditions: read-out: EC50 PY588
Sequence of EphA2 (P29317 24-976): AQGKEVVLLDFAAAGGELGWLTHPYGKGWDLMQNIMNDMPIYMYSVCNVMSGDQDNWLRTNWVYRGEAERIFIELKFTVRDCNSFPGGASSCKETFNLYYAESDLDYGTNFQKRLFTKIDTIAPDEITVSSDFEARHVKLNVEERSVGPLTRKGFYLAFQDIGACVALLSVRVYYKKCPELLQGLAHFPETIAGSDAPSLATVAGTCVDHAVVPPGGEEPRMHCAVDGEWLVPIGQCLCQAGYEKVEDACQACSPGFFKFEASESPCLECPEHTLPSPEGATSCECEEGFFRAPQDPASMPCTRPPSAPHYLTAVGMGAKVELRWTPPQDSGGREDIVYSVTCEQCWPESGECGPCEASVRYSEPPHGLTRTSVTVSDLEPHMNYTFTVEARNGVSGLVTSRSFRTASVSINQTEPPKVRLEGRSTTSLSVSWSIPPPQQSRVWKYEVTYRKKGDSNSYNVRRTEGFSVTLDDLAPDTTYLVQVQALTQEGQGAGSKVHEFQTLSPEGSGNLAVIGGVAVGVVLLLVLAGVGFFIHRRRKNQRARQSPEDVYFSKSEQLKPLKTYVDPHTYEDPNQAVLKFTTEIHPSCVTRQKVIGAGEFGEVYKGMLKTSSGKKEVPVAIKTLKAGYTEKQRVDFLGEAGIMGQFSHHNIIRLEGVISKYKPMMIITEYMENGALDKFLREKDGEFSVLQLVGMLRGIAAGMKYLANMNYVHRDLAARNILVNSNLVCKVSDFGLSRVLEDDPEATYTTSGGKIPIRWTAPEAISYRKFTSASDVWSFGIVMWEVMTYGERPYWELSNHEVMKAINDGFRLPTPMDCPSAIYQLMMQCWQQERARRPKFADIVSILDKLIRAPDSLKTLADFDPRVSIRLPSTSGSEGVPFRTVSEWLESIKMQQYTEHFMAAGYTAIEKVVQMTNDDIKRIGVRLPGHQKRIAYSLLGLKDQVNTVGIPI
Procedure: (FIG. 2A) Dose-response curves for EphA2 autophosphorylation on tyrosine 588 (pY588; purple) and for downstream inhibition of AKT phosphorylation (magenta). PC3 cells were treated for 15 min with different concentrations of the indicated peptides. […] The graphs show quantifications from multiple blots (averages ±SE; the number of experiments used to generate each curve is shown in Table 3). […] (FIG. 2B) Examples of immunoblots of lysates from PC3 cells treated with the indicated concentrations of representative ligands. […] A white vertical line indicates removal of irrelevant lanes. […] The bars show averages ±SE, and the individual measurements are shown as black dots. […] Plots of Etop versus EC50 for pY588 in FIG. 2D and for pAKT inh in FIG. 2E. Averages ±SE are shown for the peptides and ephrinA1.
To examine the agonistic properties of the different dimeric peptide ligands, EphA2 autophosphorylation on tyrosine 588 (Y588) was measured, which is indicative of receptor activation and mediates binding of SH2 domain-containing proteins that link EphA2 to various downstream signaling pathways (FIG. 7). For these experiments, PC3 prostate cancer cells were stimulated with the dimeric peptides because EphA2 is the prevalent endogenously expressed EphA receptor in these cells, allowing comparisons with ephrins.

[3] = DMSO, third of PBS/H2O/DMSO, read-out: Solubility in DMSO
[4] = H2O, Table 4, second of PBS/H20/DMSO, read-out: Solubility in H20
[5] = H2O, second of PBS/H2O/DMSO, read-out: Solubility in H2O
[6] = PBS, first of PBS/H2O/DMSO, read-out: Solubility in PBS
[7] = DMSO, Table 4, third of PBS/H20/DMSO, read-out: Solubility in DMSO
[8] = PBS, Table 4, first of PBS/H20/DMSO, read-out: Solubility in PBS
[9] = Table 3, inhibition of EphA2-ephrinA5 interaction, averages ± SD, read-out: ICsa (nM) by ELISA

solubility [1, 3] [µg/mL] | solubility [1, 4] [µg/mL] | solubility [1, 5] [µg/mL] | solubility [1, 6] [µg/mL] | ICsa (nM) by ELISA ([2]; Table 3, inhibition of EphA2-ephrinA5 interaction, averages ± SD) | solubility [1, 7] [µg/mL] | solubility [1, 8] [µg/mL] | IC50 [2, 9] [nM] | solubility ([1]; water, Table 4, second of PBS/H20/DMSO, read-out: Solubility in H20) [µg/mL] | Kd (EphA2 LBD) [nM] | IC50 ([2]; inhibition of ephrin-A5 binding to EphA2, number of experiments in parentheses, read-out: Inc50 (nM) by ELISA) [nM] | EC50 (EphA2) [nM] | Compound | binding to the EphA2 LBD by ITC (EphA2 LBD; high biotin concentration (1 mM))
10000 (≈ 2920 µM) | 5000 (≈ 1460 µM) | 5000 (≈ 1460 µM) | 1000 (≈ 292 µM) | subnanomolar |  |  |  |  |  |  |  | CC(C)C[C@H](NC(=O)[C@H](Cc1c[nH]c2ccccc12)NC(=O)CCN)C(=O)N[C@@H](C)C(=O)N[C@@H](Cc1ccc(O)cc1)C(=O)N1CCC[C@H]1C(=O)N[C@@H](CC(=O)O)C(=O)N[C@@H](CO)C(=O)N[C@H](C(=O)N1CCC[C@H]1C(=O)N[C@@H](Cc1ccc(O)cc1)C(=O)N[C@@H](CCCNC(=N)N)C(=O)N1CCC[C@H]1C(=O)N[C@@H](CCCCN)C(=O)NCC(=O)NCC(=O)N[C@@H](C)C(=O)N[C@@H](Cc1c[nH]c2ccccc12)C(=O)N[C@@H](CC(C)C)C(=O)N[C@@H](C)C(=O)N[C@@H](Cc1ccc(O)cc1)C(=O)N1CCC[C@H]1C(=O)N[C@@H](CC(=O)O)C(=O)N[C@@H](CO)C(=O)N[C@H](C(=O)N1CCC[C@H]1C(=O)N[C@@H](Cc1ccc(O)cc1)C(=O)N[C@@H](CCCNC(=N)N)C(=O)N1CCC[C@H]1C(=O)N[C@@H](CCCCN)C(N)=O)C(C)C)C(C)C [compound 8, linear dimer (head-to-tail)] (H-[βAla]WLAYPDSVPYRPKGGAWLAYPDSVPYRPK-NH2; N-terminus assumed) | 
10000 (≈ 2750 µM) | 5000 (≈ 1380 µM) | 5000 (≈ 1380 µM) | < 100 |  |  | 1000 (≈ 275 µM) | 0.54 |  |  |  | 0.22 ± 0.04 | CC(C)C[C@H](NC(=O)[C@H](Cc1c[nH]c2ccccc12)NC(=O)[C@H](C)NC(=O)CNC(=O)[C@@H](N)Cc1cn(CCCC[C@H](N)C(=O)N[C@@H](C)C(=O)N[C@@H](Cc2c[nH]c3ccccc23)C(=O)N[C@@H](CC(C)C)C(=O)N[C@@H](C)C(=O)N[C@@H](Cc2ccc(O)cc2)C(=O)N2CCC[C@H]2C(=O)N[C@@H](CC(=O)O)C(=O)N[C@@H](CO)C(=O)N[C@H](C(=O)N2CCC[C@H]2C(=O)N[C@@H](Cc2ccc(O)cc2)C(=O)N[C@@H](CCCNC(=N)N)C(=O)N2CCC[C@H]2C(=O)N[C@@H](CCCCN)C(N)=O)C(C)C)nn1)C(=O)N[C@@H](C)C(=O)N[C@@H](Cc1ccc(O)cc1)C(=O)N1CCC[C@H]1C(=O)N[C@@H](CC(=O)O)C(=O)N[C@@H](CO)C(=O)N[C@H](C(=O)N1CCC[C@H]1C(=O)N[C@@H](Cc1ccc(O)cc1)C(=O)N[C@@H](CCCNC(=N)N)C(=O)N1CCC[C@H]1C(=O)N[C@@H](CCCCN)C(N)=O)C(C)C [compound 7] | 

Continued, compound first:

Compound | solubility [1, 3] [µg/mL] | solubility [1, 4] [µg/mL] | solubility [1, 5] [µg/mL] | solubility [1, 6] [µg/mL] | ICsa (nM) by ELISA ([2]; Table 3, inhibition of EphA2-ephrinA5 interaction, averages ± SD) | solubility [1, 7] [µg/mL] | solubility [1, 8] [µg/mL] | IC50 [2, 9] [nM] | solubility ([1]; water, Table 4, second of PBS/H20/DMSO, read-out: Solubility in H20) [µg/mL] | Kd (EphA2 LBD) [nM] | IC50 ([2]; inhibition of ephrin-A5 binding to EphA2, number of experiments in parentheses, read-out: Inc50 (nM) by ELISA) [nM] | EC50 (EphA2) [nM] | binding to the EphA2 LBD by ITC (EphA2 LBD; high biotin concentration (1 mM))
O=C(O)CCCC[C@@H]1SC[C@@H]2NC(=O)N[C@@H]21 [free biotin, biotin, reference compound] |  |  |  |  |  |  |  |  |  |  |  |  | did not detect binding
CC(C)C[C@H](NC(=O)[C@H](Cc1c[nH]c2ccccc12)NC(=O)CCN)C(=O)N[C@@H](C)C(=O)N[C@@H](Cc1ccc(O)cc1)C(=O)N1CCC[C@H]1C(=O)N[C@@H](CC(=O)O)C(=O)N[C@@H](CO)C(=O)N[C@H](C(=O)N1CCC[C@H]1C(=O)N[C@@H](Cc1ccc(O)cc1)C(=O)N[C@@H](CCCNC(=N)N)C(=O)N1CCC[C@H]1C(=O)N[C@@H](CCCCN)C(=O)NCCCC[C@H](NC(=O)[C@H](CCCCN)NC(=O)[C@@H]1CCCN1C(=O)[C@H](CCCNC(=N)N)NC(=O)[C@H](Cc1ccc(O)cc1)NC(=O)[C@@H]1CCCN1C(=O)[C@@H](NC(=O)[C@H](CO)NC(=O)[C@H](CC(=O)O)NC(=O)[C@@H]1CCCN1C(=O)[C@H](Cc1ccc(O)cc1)NC(=O)[C@H](C)NC(=O)[C@H](CC(C)C)NC(=O)[C@H](Cc1c[nH]c2ccccc12)NC(=O)CCN)C(C)C)C(=O)O)C(C)C [compound 3] |  | 5000 (≈ 1460 µM) |  |  |  | 10000 (≈ 2910 µM) | < 100 | 0.77 |  |  |  |  | 
CC(C)C[C@H](NC(=O)[C@H](Cc1c[nH]c2ccccc12)NC(=O)[C@H](C)NC(=O)CNC(=O)[C@@H](N)CSSC[C@H](N)C(=O)NCC(=O)N[C@@H](C)C(=O)N[C@@H](Cc1c[nH]c2ccccc12)C(=O)N[C@@H](CC(C)C)C(=O)N[C@@H](C)C(=O)N[C@@H](Cc1ccc(O)cc1)C(=O)N1CCC[C@H]1C(=O)N[C@@H](CC(=O)O)C(=O)N[C@@H](CO)C(=O)N[C@H](C(=O)N1CCC[C@H]1C(=O)N[C@@H](Cc1ccc(O)cc1)C(=O)N[C@@H](CCCNC(=N)N)C(=O)O)C(C)C)C(=O)N[C@@H](C)C(=O)N[C@@H](Cc1ccc(O)cc1)C(=O)N1CCC[C@H]1C(=O)N[C@@H](CC(=O)O)C(=O)N[C@@H](CO)C(=O)N[C@H](C(=O)N1CCC[C@H]1C(=O)N[C@@H](Cc1ccc(O)cc1)C(=O)N[C@@H](CCCNC(=N)N)C(=O)O)C(C)C [compound 4] (I: H-CGAWLAYPDSVPYR-OH / II: H-CGAWLAYPDSVPYR-OH; disulfide I:1-II:1; C-terminus assumed) | 10000 (≈ 3130 µM) |  | < 100 | < 100 |  | 10000 (≈ 3130 µM) | < 100 |  | < 100 | 104 ± 1 | 7.9 ± 1.9 |  | 
